The values below come from patent US6413983B1, “Benzopyranyl heterocycle derivatives, process for preparation thereof, and pharmaceutical compositions containing them” (Dongbu Hannong Chemical Co. Ltd., priority 2000, dated 2002).

Test [1] deals with cerebral cortical neurons. Put plainly: Protective activity for neuronal cells against iron-induced damage (LDH release). Type of test: cell-based, rat. The note with it: 30 μM compound, 50 uM FeSO4, 24 hours, LDH reduction rate vs control. The procedure: From the brains of 17-18 day-old rat embryos, cerebral cortical neurons were isolated and then, cultured at 37° C. for 7-9 days in a 5% CO2 incubator. The cortical cell cultures were washed twice with a minimum essential medium (MEM) to reduce the serum concentration to 0.2% and pre-treated for 30 min with 30 μM of each of test compounds. For the experiments, the test compounds were dissolved in DMSO and diluted in a medium. At this time, the final concentration of DMSO was not allowed to exceed 0.2%. For a control group, only vehicle was applied.
After the pre-treatment with test compounds or vehicle, FeSO4 was added to a final concentration of 50 uM, and the cultures were maintained for 24 hours in a CO2 incubator. During incubation, lactate dehydrogenase (LDH) was released into the medium upon neuronal death by the oxidative toxicity of iron. The extent of neuronal damage was assessed by measuring the amount of LDH released into the media. The protective effect of the compounds of interest on neurons was evaluated by calculating the LDH reduction rate of treatment group compared with that of the control group.

The test system of the next test is isolated rat hearts. Put plainly: Cardioprotective activity in isolated ischemic heart models of rats (Langendorff, global ischemia/reperfusion). The note with it: 10 μM; for LDH (U/g): cumulative reperfusion LDH release; for EDP (MmHg): left ventricular end-diastolic pressure after 30 min reperfusion; for LDVP × HR (%): reperfusion double product as % of pretreatment DP, 30 min global ischemia, 30 min reperfusion; for TTC: time to contracture during global ischemia. The procedure: Male Sprague-Dawley rats weighing 300-450 g were anesthetized with sodium pentobarbital (100 mg/kg, i.p.). The tail vein was injected with heparin (1,000 U/kg) and then the trachea was intubated. […] A latex balloon filled with solvent (ethanol: water=1:1 (v/v)) and attached to a metal cannula was placed in the left ventricle through pulmonary vein and connected to a Isotec pressure transducer (H.S.E., Germany) for measurement of left ventricular pressure (LVP). […] Then, baseline contractile function, heart rate (HR), and coronary flow (CF) (extracorporeal electromagnetic flow probe, Narco Bio-System, U.S.A.) were measured. Cardiac contractile function was calculated by subtracting LVEDP from LV peak systolic pressure (LVSP), yielding developed pressure (LVDP). Double product (DP), another important parameter for assessing cardiac performance, was calculated by multiplying HR by LVDP. Throughout the experiment, all these parameters were measured, and calculated before and 10 min after pretreatment with each compound and 30 min after the onset of reperfusion with buffer. Data on reperfusion DP were further expressed as the percentage to pretreatment DP.
We then rendered the hearts globally ischemic by completely shutting off the perfusate for 30 min. Severity of ischemia was determined as the time to contracture (TTC, min) during global ischemia in which the first 5 mmHg increase in EDP was observed. Then, the hearts were reperfused and, 30 min later, contractile function (LVDP, DP) and cumulative reperfusion lactate dehydrogenase (LDH) release were measured. LDH was measured as a sensitive index for loss of cell viability with a kit supplied by Boerhinger Mannheim based on the technique of Wroblewski and LaDue [F. Wroblewski and JS.

Test [2] relates to isolated rat aorta constricted with methoxamine. Put plainly: Vasodilation effects on isolated aorta of rats (methoxamine-constricted rings). As to conditions: isolated rat aorta constricted with methoxamine (3 μM); 50% relaxation.
Source text: Male Sprague-Dawly rats (350-450 g, obtained from the Experimental Animal Team of the Korea Research Institute of Chemical Technology) were knocked unconscious by hitting the occipital region, sacrificed by cervical dislocation, and underwent thoracotomy. After being quickly removed, the thoracic aorta was deprived of the adipose tissue and cut into aortic rings of 3 mm width. The aorta was lightly rubbed with cotton club soaked in a modified Krebs Henseleit buffer (Physiological Salt Solution, PSS) to remove the inner epithelial layer therefrom.
Thereafter, 3×10^−6 M methoxamine was applied to induce an intensive constriction in the vascular smooth muscle. When the vasoconstriction induced by the methoxamine was reached and maintained to a maximum, test compounds and controls were cumulatively added to the organ baths in concentrations of 1, 3, 10 and 30 μM so as to examine the vasodilation effect.
The change rate of constriction by the addition of the drugs compared to the maximal constriction induced by methoxamine was calculated to plot a concentration-relaxation response curve.

Take `CCOC(=O)[C@@H]1Cc2ccccc2N1[C@@H]1c2cc([N+](=O)[O-])ccc2O[C@](C)(C(OC)OC)[C@H]1O` [Example 4, 1-[(2S, 3S, 4R)-3,4-dihydro-2-dimethoxymethyl-3-hydroxy-2-methyl-6-nitro-2H-1-benzopyran-4-yl]-(2S)-2,3-dihydro-1H-indole-2-carboxylic acid ethyl ester]: in test [1] (listed as EX. 4), the “% Protection” value worked out at 98%.
For `COC(=O)[C@H]1CCc2ccccc2N1[C@H]1c2cc([N+](=O)[O-])ccc2O[C@](C)(C(OC)OC)[C@@H]1O` [Example 54, 1-[(2S, 3R, 4S)-3,4-dihydro-2-dimethoxymethyl-3-hydroxy-2-methyl-6-nitro-2H-1-benzopyran-4-yl]-(2R)-1,2,3,4-tetrahydro-1H-quinoline-2-carboxylic acid methyl ester], the “% Protection” value in test [1] is listed as 100%; in test [1] (listed as EX. 54) it was 101%.
As to `COC(=O)[C@H]1Cc2ccccc2N1[C@H]1c2cc([N+](=O)[O-])ccc2O[C@](C)(C(OC)OC)[C@@H]1O` [Example 5, 1-[(2S, 3R, 4S)-3,4-dihydro-2-dimethoxymethyl-3-hydroxy-2-methyl-6-nitro-2H-1-benzopyran-4-yl]-1H-(2R)-2,3-dihydroindole-2-carboxylic acid methyl ester], the “% Protection” value in test [1] is on record as 79%.
For `COC(=O)c1cc2ccccc2n1[C@H]1c2cc([N+](=O)[O-])ccc2O[C@](C)(C(OC)OC)[C@@H]1O` [Example 48, 1-[(2S, 3R, 4S)-3,4-dihydro-2-dimethoxymethyl-3-hydroxy-2-methyl-6-nitro-2H-1-benzopyran-4-yl]-1H-indole-2-carboxylic acid methyl ester], in the test on isolated rat hearts, the “LDH (U/g)” value is recorded as 16.7 U/g, the “EDP (MmHg)” value came to 9.5 MmHg, the “LDVP × HR (%)” value is 79.5% and the “TTC” value was 22.0 min. The compound further returned an IC50 in test [2] of 24 µM.
Take `CCOC(=O)[C@@H]1Cc2cc(F)ccc2N1[C@H]1c2cc([N+](=O)[O-])ccc2O[C@](C)(C(OC)OC)[C@@H]1O` [Example 16, 1-[(2S, 3R, 4S)-3,4-dihydro-2-dimethoxymethyl-3-hydroxy-2-methyl-6-nitro-2H-1-benzopyran-4-yl]-(2S)-2,3-dihydro-1H-5-fluoroindole-2-carboxylic acid ethyl ester]: in test [1], the “% Protection” value is given as 73%.
Regarding “(2S, 2aR, 10aS)-[(3,4-b)-2a,10a-dihydro-2-dimethoxymethyl-2-methyl-12-nitro-2H-1-benzopyrano]-[(1,2-d)-10H-indolino]-4-oxomorpholine [Example 62]”, in the test on isolated rat hearts, the “LDH (U/g)” value is listed as 20.5 U/g, the “EDP (MmHg)” value turned out to be 36.5 MmHg, the “LDVP × HR (%)” value was determined as 67.2% and the “TTC” value stood at 23.1 min. The IC50 in test [2] is greater than 30 µM.
For the compound `COC(=O)[C@@H]1Cc2ccccc2N1[C@H]1c2cc([N+](=O)[O-])ccc2O[C@](C)(C(OC)OC)[C@@H]1O` [Example 6, 1-[(2S, 3R, 4S)-3,4-dihydro-2-dimethoxymethyl-3-hydroxy-2-methyl-6-nitro-2H-1-benzopyran-4-yl]-1H-(2S)-2,3-dihydroindole-2-carboxylic acid methyl ester], in the test on isolated rat hearts, the “LDH (U/g)” value is reported as 10.4 U/g, the “EDP (MmHg)” value amounted to 21 MmHg, the “LDVP × HR (%)” value is 62.2% and the “TTC” value is 24.5 min. The compound also yielded an IC50 in test [2] of 15.6 µM.
For the compound “(2S, 2aS, 10aR)-[(3,4-b)-2a,10a-dihydro-2-dimethoxymethyl-2-methyl-12-nitro-2H-1-benzopyrano]-[(1,2-d)-10H-indolino]-4-oxomorpholine [Example 63]”, the “% Protection” value in test [1] turned out to be 100%.
In the case of `CCOC(=O)[C@@H]1Cc2cc(OC)ccc2N1[C@H]1c2cc([N+](=O)[O-])ccc2O[C@](C)(C(OC)OC)[C@@H]1O` [Example 12, 1-[(2S, 3R, 4S)-3,4-dihydro-2-dimethoxymethyl-3-hydroxy-2-methyl-6-nitro-2H-1-benzopyran-4-yl]-(2S)-2,3-dihydro-1H-5-methoxyindole-2-carboxylic acid ethyl ester], the “% Protection” value in test [1] came out at 85%.
`COC(=O)[C@H]1CCc2ccccc2N1[C@@H]1c2cc([N+](=O)[O-])ccc2O[C@](C)(C(OC)OC)[C@H]1O` [Example 56, 1-[(2S, 3S, 4R)-3,4-dihydro-2-dimethoxymethyl-3-hydroxy-2-methyl-6-nitro-2H-1-benzopyran-4-yl]-(2R)-1,2,3,4-tetrahydro-1H-quinoline-2-carboxylic acid methyl ester]: in the test with isolated rat hearts, the “LDH (U/g)” value is on record as 18.8 U/g, the “EDP (MmHg)” value was 29.0 MmHg, the “LDVP × HR (%)” value is given as 61.0% and the “TTC” value is listed as 22.2 min. Half-maximal inhibition in test [2] (IC50) required 11.4 µM.
In the case of `CCOC(=O)[C@H]1Cc2cc(F)ccc2N1[C@H]1c2cc([N+](=O)[O-])ccc2O[C@](C)(C(OC)OC)[C@@H]1O` [Example 15, 1-[(2S, 3R,4S)-3,4-dihydro-2-dimethoxymethyl-3-hydroxy-2-methyl-6-nitro-2H-1-benzopyran-4-yl]-(2R)-2,3-dihydro-1H-5-fluoroindole-2-carboxylic acid ethyl ester], in the test with isolated rat hearts, the “LDH (U/g)” value was 12.0 U/g, the “EDP (MmHg)” value came out at 2.7 MmHg, the “LDVP × HR (%)” value turned out to be 53.3% and the “TTC” value was 24.8 min. Further, the IC50 in test [2] is greater than 30 µM.
In test [2], `CC1(C)Oc2ccc(C#N)cc2C(N2CCCC2=O)C1O` (stereo not drawn) [CromaKalim, Cromakalim, reference compound] had an IC50 of 0.067 µM.

A word on the IC50: it is the concentration that inhibits the measured activity by half. Read a low IC50 as greater potency in that assay.
